Test results published in US20260001928A1 (CORTERIA PHARMACEUTICALS, priority 2022, published 2026).
pEC50: −log10 of the molar value. *1 amine or outer side, *2 acyl side, *3 side chain or, on linkers, in order; H or OH if unused. Where a SMILES comes first, the peptide text is derived from it. Side-chain parts run from the residue outwards. [ ]: non-standard residue; d: D form. The star is where a group is joined. C20 diacid = O=C(O)CCCCCCCCCCCCCCCCCCC(=O)*; C18 diacid = O=C(O)CCCCCCCCCCCCCCCCC(=O)*; γGlu = O=C(O)[C@H](CCC(=O)[*:2])N[*:1]; Pentanoyl = CCCCC(=O)*; AEEA = NCCOCCOCC(=O)O; Aib = CC(C)(N)C(=O)O

Legend:
human CRF2a receptor = biological target: T1, human CRF2a receptor (Homo sapiens, UniProt Q13324); experiment: Activity at human CRF2a receptor, cAMP functional assay in TeloHEAC cells; assay type: cell-based; conditions: TeloHEAC cells stably expressing human CRF2a receptor, relative to urocortin 2 (100 nM = 100%)
T1 construct: expressed in transfected cells; host or cells: TeloHEAC cells
T1 sequence (Q13324 1-411): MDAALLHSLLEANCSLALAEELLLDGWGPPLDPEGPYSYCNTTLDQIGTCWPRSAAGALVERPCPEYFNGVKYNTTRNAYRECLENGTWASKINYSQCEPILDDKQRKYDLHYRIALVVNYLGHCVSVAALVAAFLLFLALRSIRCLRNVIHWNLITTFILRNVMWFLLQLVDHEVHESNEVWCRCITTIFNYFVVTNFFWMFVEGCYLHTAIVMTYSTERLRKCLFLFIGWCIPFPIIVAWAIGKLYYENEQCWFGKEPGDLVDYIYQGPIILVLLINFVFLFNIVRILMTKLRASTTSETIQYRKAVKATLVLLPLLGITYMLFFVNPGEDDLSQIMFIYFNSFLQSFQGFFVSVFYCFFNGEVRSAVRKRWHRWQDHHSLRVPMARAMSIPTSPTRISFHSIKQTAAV
Outline: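 TeloHEAC cells stably expressing human CRF2a (10000 cells/well) were treated with 16-point 1:2 compound dilutions in HBSS/20 mM HEPES with IBMX for 30 min at 37° C. cAMP was read by HTRF (665/620 nm ratio). EC50 was the concentration giving 50% activation, with 100 nM urocortin 2 set as 100%.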

CFR1R receptor = biological target: T2, CFR1R receptor (Homo sapiens, UniProt P34998); experiment: Activity at anti-target CFR1R receptor, cAMP assay in CRF1R-overexpression CHO-K1 cells; assay type: cell-based; conditions: 100% = Sauvagine at 100 nM; for pEC50: cAMP
T2 construct: host or cells: CHO-K1 (clone 2)
T2 sequence (P34998 24-415): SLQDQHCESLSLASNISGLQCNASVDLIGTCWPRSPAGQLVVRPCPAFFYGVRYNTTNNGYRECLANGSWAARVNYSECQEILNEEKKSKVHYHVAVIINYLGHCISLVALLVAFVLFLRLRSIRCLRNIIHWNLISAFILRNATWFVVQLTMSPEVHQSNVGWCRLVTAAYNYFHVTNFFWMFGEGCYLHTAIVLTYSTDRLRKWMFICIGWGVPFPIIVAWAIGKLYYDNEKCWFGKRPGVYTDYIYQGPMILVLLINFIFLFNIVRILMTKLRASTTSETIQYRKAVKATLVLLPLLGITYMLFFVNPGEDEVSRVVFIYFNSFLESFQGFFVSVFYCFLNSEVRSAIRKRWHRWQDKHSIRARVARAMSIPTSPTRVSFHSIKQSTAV
Outline: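 Grow clone 2 to near confluence at 37° C. under 5% CO2 in F12 (Hams) with 10% FBS and G418, harvest, and freeze in 10% DMSO. Thaw and plate at 4000 cells/well. Then proceed per the TeloHAEC method, normalising to Sauvagine 100 nM as maximum.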

[1] = In vitro subcutaneous tissue supernatant (SCts) stability and metabolite identification, rat; assay type: in vitro ADME; design: remaining at 2 h: dose or concentration left out as unconfirmed; conditions: male, Sprague Dawley; rat subcutaneous tissue supernatant (SCts), 37° C, 2 h
[2] = Chemical stability in buffer (pH 7.4 / pH 4.5), % purity loss; assay type: physicochemical; conditions: 40° C. vs 5° C., 14 or 28 days; for Buffer stability pH 7.4 % purity loss: 100 mM phosphate buffer pH 7.4; for Buffer stability pH 4.5 % purity loss: 100 mM acetate buffer pH 4.5
Outline: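 LC-UV gave % loss after 14 or 28 days of storage at 5 °C or 40 °C. Samples were diluted supernatants from compound incubated 1 h at room temperature at 10 mg/mL target, in 100 mM acetate pH 4.5 or 100 mM phosphate pH 7.4.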

Sprague Dawley rats = experiment: Effect on systolic blood pressure, telemetry in Sprague Dawley rats; assay type: in vivo, rat; conditions: 0.1 mg/kg SC; for Systolic blood pressure (Mean) % change from baseline, 8 h / Systolic blood pressure (Mean) % change from baseline, 12 h / Systolic blood pressure (Mean) % change from baseline, 24 h: n=2; for Duration of action: last time point with an effect on BP still observed
Outline: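 Values are % change from a 1 h pre-dose baseline in systolic pressure, tracked by telemetry for up to 48 hours after a single 0.1 mg/kg subcutaneous dose. Rats (Sprague Dawley, n=2 per peptide) carried aortic catheters and recovered at least 10 days post-surgery; duration of action marks the last time point still showing an effect.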

[3] = Pharmacokinetics in male Sprague Dawley rats after subcutaneous administration; assay type: in vivo; conditions: plasma, rat, IV

Compound	pEC50 (human CRF2a receptor)	Emax (% I) (CFR1R receptor)	pEC50 (CFR1R receptor)	remaining at 2 h [1]	Buffer stability pH 7.4 % purity loss [2]	Systolic blood pressure (Mean) % change from baseline, 8 h (Sprague Dawley rats)	Systolic blood pressure (Mean) % change from baseline, 12 h (Sprague Dawley rats)	Systolic blood pressure (Mean) % change from baseline, 24 h (Sprague Dawley rats)	Duration of action (Sprague Dawley rats)	AUC(0-t) ([3]; 0.05 mg/kg)	half-life ([3]; 0.05 mg/kg)	Buffer stability pH 4.5 % purity loss [2]	AUC(0-t) ([3]; 0.025 mg/kg)	half-life ([3]; 0.025 mg/kg)
CCCCC(=O)N[C@H](C(=O)N[C@@H](CC(C)C)C(=O)N[C@@H](CO)C(=O)N[C@@H](CC(C)C)C(=O)N[C@@H](CC(=O)O)C(=O)N[C@@H](C(=O)N1CCC[C@H]1C(=O)N[C@H](C(=O)N[C@@H](CCCCN)C(=O)N[C@@H](CC(C)C)C(=O)N[C@@H](CCCCNC(=O)CC[C@H](NC(=O)CCCCCCCCCCCCCCCCC(=O)O)C(=O)O)C(=O)N[C@@H](CCCCN)C(=O)N[C@H](C(=O)N[C@@H](CC(C)C)C(=O)N[C@@H](CC(C)C)C(=O)N[C@@H](CCC(=O)O)C(=O)N[C@@H](CCC(N)=O)C(=O)N[C@@H](CCC(=O)O)C(=O)N[C@@H](CCCCN)C(=O)N[C@@H](CCC(N)=O)C(=O)N[C@@H](CCCCN)C(=O)N[C@@H](CCCCN)C(=O)N[C@@H](CCC(N)=O)C(=O)N[C@@H](CCCNC(=N)N)C(=O)N[C@@H](CCC(=O)O)C(=O)N[C@@H](CCC(N)=O)C(=O)N[C@@H](C)C(=O)N[C@@H](CCC(=O)O)C(=O)N[C@H](C(=O)N[C@@H](CC(N)=O)C(=O)NC(C)(C)C(=O)N[C@@H](CCC(N)=O)C(=O)N[C@H](C(=O)N[C@@H](CC(C)C)C(=O)N[C@@H](C)C(=O)N[C@@H](CCC(N)=O)C(=O)N[C@H](C(N)=O)C(C)C)[C@@H](C)CC)[C@@H](C)O)[C@@H](C)CC)[C@@H](C)CC)C(C)C)C(C)C [compound 193] (Pentanoyl-VLSLD[dV]PIKLK([γGlu-C18 diacid])KILLEQEKQKKQREQAETN[Aib]QILAQV-NH2)	9.77	20 % I	< 6.60	56%	0.0/Not Tested %	−20%	−12%	−8%	>24 h	2340 ng·h/mL	4.9 h	–	–	–
CC[C@H](C)[C@H](NC(C)=O)C(=O)N[C@H](C(=O)N[C@@H](CC(C)C)C(=O)N[C@@H](CO)C(=O)N[C@@H](CC(C)C)C(=O)N[C@@H](CC(=O)O)C(=O)N[C@@H](C(=O)N1CCC[C@H]1C(=O)N[C@H](C(=O)N[C@@H](CCCCN)C(=O)N[C@@H](CC(C)C)C(=O)N[C@@H](CCCCNC(=O)CC[C@H](NC(=O)CCCCCCCCCCCCCCCCC(=O)O)C(=O)O)C(=O)N[C@@H](CCCCN)C(=O)N[C@H](C(=O)N[C@@H](CC(C)C)C(=O)N[C@@H](CC(C)C)C(=O)N[C@@H](CCC(=O)O)C(=O)N[C@@H](CCC(N)=O)C(=O)N[C@@H](CCC(=O)O)C(=O)N[C@@H](CCCCN)C(=O)N[C@@H](CCC(N)=O)C(=O)N[C@@H](CCCCN)C(=O)N[C@@H](C)C(=O)N[C@@H](CCC(N)=O)C(=O)N[C@@H](CCCNC(=N)N)C(=O)N[C@@H](CCC(=O)O)C(=O)N[C@@H](CCC(N)=O)C(=O)N[C@@H](C)C(=O)N[C@@H](CCC(=O)O)C(=O)N[C@H](C(=O)N[C@@H](CC(N)=O)C(=O)NC(C)(C)C(=O)N[C@@H](CCC(N)=O)C(=O)N[C@H](C(=O)N[C@@H](CC(C)C)C(=O)N[C@@H](C)C(=O)N[C@@H](CCC(N)=O)C(=O)N[C@H](C(N)=O)C(C)C)[C@@H](C)CC)[C@@H](C)O)[C@@H](C)CC)[C@@H](C)CC)C(C)C)C(C)C [compound 189] (Ac-IVLSLD[dV]PIKLK([γGlu-C18 diacid])KILLEQEKQKAQREQAETN[Aib]QILAQV-NH2)	9.54	9 % I	< 6.60	67%	0.0/Not Tested %	−27%	−25%	−13%	>24 h	5040 ng·h/mL	7.5 h	–	–	–
CCCCC(=O)N[C@H](C(=O)N[C@@H](CC(C)C)C(=O)N[C@@H](CO)C(=O)N[C@@H](CC(C)C)C(=O)N[C@@H](CC(=O)O)C(=O)N[C@@H](C(=O)N1CCC[C@H]1C(=O)N[C@H](C(=O)N[C@@H](CCCCN)C(=O)N[C@@H](CC(C)C)C(=O)N[C@@H](CCCCNC(=O)COCCOCCNC(=O)CC[C@H](NC(=O)CCCCCCCCCCCCCCCCCCC(=O)O)C(=O)O)C(=O)N[C@@H](CCCCN)C(=O)N[C@H](C(=O)N[C@@H](CC(C)C)C(=O)N[C@@H](CC(C)C)C(=O)N[C@@H](CCC(=O)O)C(=O)N[C@@H](CCC(N)=O)C(=O)N[C@@H](CCC(=O)O)C(=O)N[C@@H](CCCCN)C(=O)N[C@@H](CCC(N)=O)C(=O)N[C@@H](CCCCN)C(=O)N[C@@H](CCCCN)C(=O)N[C@@H](CCC(N)=O)C(=O)N[C@@H](CCCNC(=N)N)C(=O)N[C@@H](CCC(=O)O)C(=O)N[C@@H](CCC(N)=O)C(=O)N[C@@H](C)C(=O)N[C@@H](CCC(=O)O)C(=O)N[C@H](C(=O)N[C@@H](CC(N)=O)C(=O)NC(C)(C)C(=O)N[C@@H](CCC(N)=O)C(=O)N[C@H](C(=O)N[C@@H](CC(C)C)C(=O)N[C@@H](C)C(=O)N[C@@H](CCC(N)=O)C(=O)N[C@H](C(N)=O)C(C)C)[C@@H](C)CC)[C@@H](C)O)[C@@H](C)CC)[C@@H](C)CC)C(C)C)C(C)C [compound 235] (Pentanoyl-VLSLD[dV]PIKLK([AEEA-γGlu-C20 diacid])KILLEQEKQKKQREQAETN[Aib]QILAQV-NH2)	9.80	27 % I	< 6.60	66%	0.0%	−8%	−7%	−12%	>24 h	–	–	−1.6%	4510 ng·h/mL	8 h
CC[C@H](C)[C@H](NC(C)=O)C(=O)N[C@H](C(=O)N[C@@H](CC(C)C)C(=O)N[C@@H](CO)C(=O)N[C@@H](CC(C)C)C(=O)N[C@@H](CC(=O)O)C(=O)N[C@@H](C(=O)N1CCC[C@H]1C(=O)N[C@H](C(=O)N[C@@H](CCCCN)C(=O)N[C@@H](CC(C)C)C(=O)N[C@@H](CCCCNC(=O)COCCOCCNC(=O)CC[C@H](NC(=O)CCCCCCCCCCCCCCCCC(=O)O)C(=O)O)C(=O)N[C@@H](CCCCN)C(=O)N[C@H](C(=O)N[C@@H](CC(C)C)C(=O)N[C@@H](CC(C)C)C(=O)N[C@@H](CCC(=O)O)C(=O)N[C@@H](CCC(N)=O)C(=O)N[C@@H](CCC(=O)O)C(=O)N[C@@H](CCCCN)C(=O)N[C@@H](CCC(N)=O)C(=O)N[C@@H](CCCCN)C(=O)N[C@@H](CCCCN)C(=O)N[C@@H](CCC(N)=O)C(=O)N[C@@H](CCCNC(=N)N)C(=O)N[C@@H](CCC(=O)O)C(=O)N[C@@H](CCC(N)=O)C(=O)N[C@@H](C)C(=O)N[C@@H](CCC(=O)O)C(=O)N[C@H](C(=O)N[C@@H](CC(N)=O)C(=O)NC(C)(C)C(=O)N[C@@H](CCC(N)=O)C(=O)N[C@H](C(=O)N[C@@H](CC(C)C)C(=O)N[C@@H](C)C(=O)N[C@@H](CCC(N)=O)C(=O)N[C@H](C(N)=O)C(C)C)[C@@H](C)CC)[C@@H](C)O)[C@@H](C)CC)[C@@H](C)CC)C(C)C)C(C)C [compound 203] (Ac-IVLSLD[dV]PIKLK([AEEA-γGlu-C18 diacid])KILLEQEKQKKQREQAETN[Aib]QILAQV-NH2)	9.37	3 % I	< 6.60	65%	0.0/0.0 ^ %	−18%	−11%	2%	23 h	4860 ng·h/mL	6.2 h	0.0/0.0 ^ %	–	–
